Experimental data taken from patent publication US20220354752A1, “NANOFIBRE MATRIX MADE OF NATURAL POLYMERS WITH NATURAL FUNCTIONAL INGREDIENTS FOR COSMETIC PRODUCTS” (NANOLAYR LIMITED, priority 2019, published 2022).

Experiments:
[1] = test system: TNF-alpha; assay: Anti-inflammatory in vitro study: TNF-alpha in reconstructed epidermis treated with SDS; format: cell-based; settings: human reconstructed epidermis, 0.1% SDS, 24 hours incubation
Experimental: A human reconstructed epidermis is put in contact with the vegan nanofibres (topical application to mimic the real condition of use) and treated with an irritant inflammatory agent such as sodium dodecyl sulfate (SDS) to assess the capability of vegan nanofibers to counteract the inflammatory event. The evaluation is performed by using a non-treated epidermis as negative control and the epidermis treated only with the inflammatory agent (SDS) as a positive control. TNF-alpha is often associated with the inflammatory process and oxidative stress as an acute pro-inflammatory marker.

[2] = test system: human epidermal melanocytes; assay: Brightening in vitro study: melanin production of melanocytes; format: cell-based; settings: kojic acid 42 μg/ml in cell culture, 96 hours incubation
Experimental: In vitro study is used to evaluate the brightening effect and is determined by analysing the melanin production of melanocytes. The level of melanin produced by melanocytes determines the colour of skin, therefore, the brightening effect can be evaluated by the impact of formulation on the melanin production of melanocytes. In this study, human epidermal melanocytes are utilised. Kojic acid, traditionally used as a brightening ingredient, is used as the positive control. Kojic add is prepared in 15% ethanol/Hanks balanced salt solution and added into cell culture to give final concentration of 42 μg/ml in cell culture. 0.8 cm circles of nanofibre is directly applied into the cell culture to give a final concentration of ethyl ascorbic add of 3 μg/ml in cell culture. FIG. 5 presents the result of melanin concentration in cells only, cells treated with kojic acid and cells treated with nanofibres after 96 hours incubation time.
The absorbance of each sample is read at 405 nm and then compared with a standard curve of synthetic melanin to estimate the concentration of melanin in the cell culture. […] The melanin concentration is 101.5 μg/ml in cells only, 101.1 μg/ml in cells with kojic add and 97.48 μg/ml in cells with nanofibres. […] This is probably due to the added kojic add concentration being very low. […]

Structure (SMILES)	concentration of TNF-alpha [1] [µg/mL]	inhibition to melanin production [2]	melanin concentration [2] [µg/mL]
CCCCCCCCCCCCOS(=O)(=O)[O-].[Na+] [SDS, sodium dodecyl sulfate]	47.92	–	–
O=c1cc(CO)occ1O [kojic acid]	–	slight inhibition to melanin production, but is not statistically significant	101.1
